Patent publication US11066421B1, “Synthetic cinchona alkaloids against cancer” (Ares Pharmaceuticals, LLC, priority 2021, dated 2021)

Tested on: mammary tumors of MMTV/neu transgenic mice
Assay: MMTV/neu transgenic mouse model of HER2+ breast cancer
Assay type: in vivo
Conditions: 9-week observation; AP-8 2 mg/kg i.p. twice daily; paclitaxel 6.7 mg/kg; gemcitabine 33.7 mg/kg
Source text: The predictive value of genetically engineered mouse (GEM) models to predict the clinical effectiveness of anti-cancer drugs is well established (Richmond A, Su Y. Mouse xenograft models vs GEM models for human cancer therapeutics. Dis Model Mech. 2008; 1(2-3):78-82. doi:10.1241-2/dmm.0.000976). We used the transgenic mouse model of HER2+ chemotherapy-resistant breast cancer to examine the in vivo anti-cancer activity of AP-8. Overexpression of the wild type Neu in the mammary glands of transgenic mice induces metastatic breast cancer. Accordingly, in the MMTV/Neu transgenic strain, the wild-type neu is overexpressed in the mammary gland under the control of the MMTV long terminal repeat. This animal model has been used to analyze the efficacy of new therapeutic approaches to prevent or treat Her2/neu overexpressing malignancies (Uckun, Dibirdik). MMTV/Neu transgenic mice [FVB/N-TgN(MMTV/neu)202MUL; Jackson Laboratory, Bar Harbor, Me.] were bred to produce multiple litters in a controlled SPF environment (12 h light/12 h-dark photoperiod, 22±1° C., 60±10% relative humidity). All mice were housed in microisolator cages (Lab Products, Inc., Maywood, N.Y., USA) containing autoclaved bedding in a controlled specific pathogen-free (SPF) environment (12 h light/12 h-dark photoperiod, 22±1° C., 60±10% relative humidity). Animal studies were approved by the institutional Animal Care and Use Committee of Drug Discovery Enterprises and all animal care procedures conformed to the Guide for the Care and Use of Laboratory Animals of the National Research Council. The genotype of mice was confirmed by multiplex polymerase chain reaction (PCR) tests as previously reported (F. M. Uckun et al., 2007, Bioorganic Med. Chem. 15:800-14; I. Dibirdik et al., 2010, J Nanomed and Nanotechnol. 1:001-4).
Neu transgenic mice carrying one or more tumors were randomly placed in the study. For the evaluation of tumor kinetics, tumor-bearing mice were randomly assigned to either vehicle control or treatment groups. Tumor growth was determined by the measurement of tumors with a caliper in three dimensions three days a week and expressed as tumor volume in cubic millimeters (mm^3). Tumor volumes were calculated using the formula for the volume of a prolate spheroid, V=4/3×3.14×length/2×width/2×depth/2. Due to the large heterogeneity in transgenic tumor volumes on day 0, tumor growth for each mouse was normalized to the starting volume for that particular tumor. Therefore, each mouse also served as its own control, and the tumor growth curves were generated to show the rate of change in tumor volumes.
AP-8 (50 μg˜2 mg/kg in 50 μL DMSO as vehicle) (10 mice, 12 target mammary tumors, Initial average tumor volume=787±125 mm^3) was administered by twice daily intraperitoneal injections on 5 consecutive days per week. Paclitaxel (10 mice, 13 target mammary tumors, Initial average tumor volume=554±79 mm^3) was administered intraperitoneally on days 1, 3, and 5 of each week at a dose level of 6.7 mg/kg ([…]). Gemcitabine (13 mice, 18 target mammary tumors, Initial average tumor volume=549±60 mm^3) was administered intraperitoneally on days 1 and 8 every 4 weeks at a dose level of 33.7 mg/kg (˜1 g/m^2). Control mice (8 mice, 10 mammary tumors, Initial average tumor volume=293±61 mm^3) were treated by twice daily intraperitoneal injections of vehicle alone (50 μL DMSO) on 5 consecutive days per week. […]

Question: Which “tumor shrinkage and tumor growth” value does the source give for `CCC1CN2CCC1CC2C(Oc1cc(OC(c2ccnc3ccc(OC)cc23)C2CC3CCN2CC3CC)nc(OC(c2ccnc3ccc(OC)cc23)C2CC3CCN2CC3CC)n1)c1ccnc2ccc(OC)cc12` (stereo not shown) [AP-8, 2,4,6-Tri (9-O-dihydroquinidinyl)pyrimidine] here?
Answer: caused shrinkage of the tumor, completely arrested the tumor growth for 4 weeks, and markedly delayed the tumor progression between 4 weeks and 9 weeks
